Measurements published in patent US10941379B2, “Microbial system for biosynthesis of natural and engineered products coupled to in situ extraction in supercritical CO2” (Massachusetts Institute of Technology, priority 2016, dated 2021).

How the values were obtained:
[1] = system: B. megaterium SR7; test: M9 supplemented growth under 1 atm CO2 (OD600); type: cell-based, Bacillus megaterium; conditions: amendment to M9 base medium, 1 atm CO2, scored by OD600
Text: Development of a minimal medium enables individual chemical components to be tuned in order to establish optimized growth from a sole carbon source under 1 atm CO2. Initial attempts to generate B. megaterium SR7 growth in triplicate cultures tested various amendments to M9 base medium (thelabrat.com; Table 1), including 0.4% glucose or 0.4% xylose amendments as sole carbon sources, with or without trace metals solution (Boone et al., 1989). The 1× concentration trace metals solution consisted of (in g/l): 0.005 Na2(EDTA), 0.0002 NiSO4.6H2O, 0.0005 CoCl2.6H2O, 0.0001H2FeO3, 0.001 FeSO4.7H2O, 0.0001H3BO3, 0.001 ZnCl2, 0.0001 NaMoO4.2H2O, 0.0004 AlCl3.6H2O, 0.001 MnCl2.4H2O, 0.0003 Na2NO4.2H2O, 0.0002 CaCl2. To further boost growth, triplicate cultures of M9+0.4% glucose were amended with dilute LB (0.001-0.01×) or yeast extract (YE; 0.001-0.01×) as de facto vitamin and co-factor solutions, and/or NaNO3 (5 mM) as an alternative electron acceptor. All M9 incubations were scored for growth by OD600 and designated as robust above OD600>0.600, low level between 0.2-0.6, and no growth below 0.2. Passaged vegetative cultures were also assayed in duplicate for growth (by OD600) amended with a range (0.1×, 0.25×, 1×) of trace metals solutions in M9+0.4% glucose+0.01×YE media, including in the presence and absence of 5 mM NaNO3.

[2] = system: B. megaterium SR7; test: Biolog GenIII sole carbon source growth; type: cell-based, Bacillus megaterium; conditions: for Growth in carbon source Biolog plate, +Metals: trace metals-amended plate; for Growth in carbon source Biolog plate, +Metals / Growth in carbon source Biolog plate, I / Growth in carbon source Biolog plate, II: Table 11; for Growth in carbon source Biolog plate, I: unamended plate trial I; for Growth in carbon source Biolog plate, II: unamended plate trial II
Protocol: (§1) Plates were incubated at 37° C. on a plate shaker at 200 rpm and assayed for growth using NADH-dependent colorimetric changes measured by OD490 on a microplate reader (BioTek Synergy 2; BioTek; Winooski, Vt.).

[3] = system: B. megaterium SR7 spores; test: Delayed germination induction in PBS under 1 atm CO2 (bulk fluorescence, OD600); type: cell-based, Bacillus megaterium; conditions: 9.5 hours after delayed induction in PBS; for OD600 Fold Decrease: OD decrease indicative of germination
Protocol: Sub-sample bulk fluorescence (Syto9®) was measured by microplate reader (BioTek Synergy 2; 485/20 excitation, 528/20 emission) and OD600 was measured by microplate reader. OD should decrease in germinated cells (the index of refraction decreases due to hydration upon spore coat degradation) while bulk fluorescence should increase as the nucleic acid stain progressively penetrates and permeates the cell (Magge et al., 2009). To test for germination after a delayed inducer spike rather than at the moment of inoculation, B. megaterium SR7 spores loaded at OD600 0.01 were incubated overnight in 30 ml of PBS, passaged into PBS amended with L-alanine (25-250 mM) or L-leucine (10-25 mM) and then assayed for germination by bulk fluorescence and OD600 during incubation.

[4] = system: B. megaterium SR7 spores; test: Spore germination induction in PBS under 1 atm CO2 (fluorescence microscopy, bulk fluorescence); type: cell-based, Bacillus megaterium; conditions: 100 mM, 8.5 hour endpoint (maximum)
Protocol: The role of candidate germination inducers was subsequently investigated in PBS buffer rather than growth medium to decouple the germination process from outgrowth. B. megaterium SR7 spores were loaded in triplicate 10 ml PBS amended with 100-250 mM L-alanine, 100 mM L-alanine with heat treatment, 25 mM L-leucine, or an unamended PBS control. The extent of germination was measured by fluorescence microscopy staining patterns (e.g., the degree of cell membrane penetration by DNA stain), bulk fluorescence, OD600, and flow cytometry (FCM). A total of 100-300 cells per filter were counted and categorized as either “dormant” or “germinated” if the spore stain was localized to the cell membrane or diffused within the interior of the cell, respectively (Cronin and Wilkinson, 2007). Cells displaying an intermediate degree of stain dispersal (“activated”) were categorized as germinated (FIG. 1).
Sub-sample bulk fluorescence (Syto9®) was measured by microplate reader (BioTek Synergy 2; 485/20 excitation, 528/20 emission) and OD600 was measured by microplate reader. OD should decrease in germinated cells (the index of refraction decreases due to hydration upon spore coat degradation) while bulk fluorescence should increase as the nucleic acid stain progressively penetrates and permeates the cell (Magge et al., 2009). […]

[5] = system: B. megaterium SR7 spores; test: Flow cytometry germination assay (Syto16/PI); type: cell-based, Bacillus megaterium; conditions: PBS amended with 2.5, 25, 250 mM
Protocol: FCM was employed as a high-throughput germination assay based on Baier et al., (2010). Triplicate cultures of B. megaterium SR7 spores loaded at OD600 0.01 were incubated overnight in PBS and PBS amended with 2.5-250 mM L-alanine, along with cell-free PBS controls. Prior to loading on the flow cytometer (BD FACS Canto II HTS-1; Becton Dickinson; Franklin Lakes, N.J.) cultures were diluted 1/50 in PBS and stained with Syto16® and propidium iodide (PI) in the dark for at least 30 minutes prior to analysis. After spore and media-only samples were used to set forward scatter, side-scatter, Syto16 and PI gates, sample data was collected and analyzed using […]™ software (BD Biosciences; Franklin Lakes, N.Y.).

[6] = system: B. megaterium SR7 spores; test: Spore germination and growth under scCO2 with germination inducers; type: cell-based, Bacillus megaterium
Protocol: SR7 growth outcomes were investigated under scCO2 headspace (90-100 atm; 37° C.) while shaking at 250 rpm. SR7 spores were inoculated at starting concentrations of ˜3×10^4 spores/ml (unless otherwise specified) in either 50 mM K2HPO4-buffered LB (P-LB) or M9+ media (Table 1). Experiments assaying the effect of germination induction included 100 mM L-alanine and 10 mM L-leucine media amendments and heat treatment upon reactor pressurization (70° C. for 10 minutes). Incubations were conducted in 316 stainless steel vessels and gradually pressurized to supercritical conditions using a CO2/He cylinder, as previously described. SR7 germination was verified by the identification of vegetative cell morphologies using fluorescence microscopy of Syto9-stained cultures. Growth was defined by an increase of at least 10-fold growth in cell counts relative to t0.
In order to ascertain whether L-alanine, L-leucine, and heat treatment induce germination under scCO2 headspace, three replicate experiments were conducted comparing growth for SR7 spores when loaded in media P-LB, P-LBL, P-LBAL, or P-LBA±heat treatment (Table 1; Table 2). Reactors were depressurized and scored for germination and growth by fluorescence microscopy, as previously described.
Cell densities of P-LB and L-PBA incubations from the three experiments (Table 3; Incubations A-C) were subjected to statistical analysis to establish the significance of 100 mM L-alanine on spore growth outcomes. A non-parametric Wilcoxon/Kruskal-Wallis Test was performed on the dataset (JMP® Pro v.12; SAS Cary, N.C.) where growth outcome (growth/no growth) and cell density fold change (relative to t0) were dependent variables and incubation time and inducer presence/absence (±100 mM L-alanine) were independent variables. […]

[7] = system: B. megaterium SR7 spores; test: Spore germination in LB under 1 atm CO2; type: cell-based, Bacillus megaterium; conditions: 100 mM L-alanine-amended LB, unamended cultures grew between 4.5 and 6 hours
Protocol: The ability to induce spore germination based on literature precedent was tested by inoculating triplicate 10 ml cultures of SR7 spores at OD600 0.01 in LB amended with 100 mM L-alanine, LB subjected to a heat activation (65° C. for 15 minutes) upon inoculation, or unamended LB as a control. Growth was scored by OD600 and LB agar CFU plate counts. In addition, subsamples were heat-killed by exposure to 80° C. for 10 minutes (Setlow, 2006) prior to plating, to ascertain remaining spore concentrations, as heat exposure is lethal to vegetative cells.

[8] = system: B. megaterium SR7; conditions: LB, aerobic
Protocol: To help guide optimization of growth conditions for strain SR7, physiological tests were conducted under aerobic conditions. To determine tolerance for pH, salinity and bicarbonate, high throughput culturing was done in 96 well plates and scored for growth by OD600 using a microplate reader (BioTek Synergy 2; BioTek; Winooski, Vt.). 200 uL LB solutions/well were inoculated in triplicate with 10^4 spores/ml (based on SR7 spore stock filter counts) and incubated on a plate rocker at 37° C. with unamended positive and cell-free negative LB controls. Tests for pH tolerance (pH 2-10) were conducted in LB medium amended with HCl or NaOH. The effect of salinity and bicarbonate on growth was determined by adding NaCl (1-10%) and NaHCO3 (0.1-0.5M), respectively, to LB media. Optimal SR7 growth temperature was tested by inoculating 10^4 spores/ml in 5 ml of LB in triplicate at temperatures of 9-55° C. Cultures and cell-free negative controls were incubated without shaking, with subsamples taken for periodic OD600 measurements. SR7 antibiotic sensitivity was determined by supplementing 5 ml LB with ampicillin (5-50 μg/ml), chloramphenicol (3.5-35 μg/ml), kanamycin (5-50 μg/ml), spectinomycin (10-100 μg/ml), streptomycin (10-100 μg/ml), or tetracycline (1.5-15 μg/ml).

[9] = system: B. megaterium DSM319; test: Biolog GenIII sole carbon source growth; type: cell-based, Bacillus megaterium; conditions: no metals added; Table 10
Protocol: as §1

[10] = system: B. megaterium QM B1551; test: Biolog GenIII sole carbon source growth; type: cell-based, Bacillus megaterium; conditions: no metals added; Table 10
Protocol: as §1

[11] = pooled incubations, 18-20 days, unamended reactors 36%
[12] = assayed 0, 5, 10, 50, 80, 100 g/L over 36 h
[13] = assayed 0, 100, 300, 500 mM over 36 h

## O=C[C@H](O)[C@@H](O)[C@H](O)CO [0.4% Xylose, Xylose]
[1]
  Growth: − (no growth below 0.2)

## C[C@H](N)C(=O)O [L-alanine]
[2]
  Growth in carbon source Biolog plate, +Metals: +
  Growth in carbon source Biolog plate, I: +
  Growth in carbon source Biolog plate, II: +
[3]; 25 mM inducer
  Fluorescence Fold Increase: 2.1 fold
  OD600 Fold Decrease: 1.5 fold
[3]; 100 mM inducer
  Fluorescence Fold Increase: 1.4 fold
  OD600 Fold Decrease: 1.2 fold
[3]; 250 mM inducer
  Fluorescence Fold Increase: 1.4 fold
  OD600 Fold Decrease: 1.2 fold
[4]
  Bulk fluorescence relative to PBS only incubated spores: 2.4 fold
[5]; PBS only 3.7%
  Spores gated as germinated (Syto16/PI fluorescence): 1.38-31.8%
[5]; PBS only 22.0%
  Spores gated as activated (Syto16/PI fluorescence): 44-69%
[6]; [11]
  Growth frequency of cultures under scCO2: 63%
[6]; with heat treatment
  Growth frequency of cultures under scCO2: 50%
[7]
  Time to germination: ≤ 4.5 h

## CC(C)C[C@H](N)C(=O)O [L-leucine]
[3]; 10 mM inducer
  Fluorescence Fold Increase: 2.0 fold
  OD600 Fold Decrease: 1.2 fold
[3]; 25 mM inducer
  Fluorescence Fold Increase: 2.0 fold
  OD600 Fold Decrease: 1.2 fold
[6]; [11]
  Growth frequency of cultures under scCO2: 7.7%

## [Cl-].[Na+] [NaCl]
[8]; [12]
  Optimal for SR7 growth, [NaCl]: 0 to 10 g/L
  Range of viable SR7 growth, [NaCl]: 0 to 100 g/L

## O=C(O)O [NaHCO3]
[8]; [13]
  Optimal for SR7 growth, NaHCO3: 0 to 100 mM
  Range of viable SR7 growth, NaHCO3: 0 to 300 mM

## OC[C@H]1O[C@H](O)[C@H](O)[C@@H](O)[C@@H]1O [α-D-Glucose]
[9]
  Growth on Biolog sole carbon source, DSM319: +++
[10]
  Growth on Biolog sole carbon source, QM B1551: +
[2]; no metals added, Table 10
  Growth on Biolog sole carbon source, SR7: +
[2]
  Growth in carbon source Biolog plate, +Metals: +++
  Growth in carbon source Biolog plate, I: +
  Growth in carbon source Biolog plate, II: +
